Data published in US12466849B2, “Anti-viral and anti-tumoral compounds” (YEDA RESEARCH AND DEVELOPMENT CO. LTD, priority 2020, dated 2025).
Read-outs that look alike come from different tables or passages of the source. Residues, ends and D or L forms follow the SMILES beside them. *: point of attachment. Cbz = O=C(OCc1ccccc1)*; CH2F = FC*

Legend:
[1] = test system: HCMV AD169; assay: HCMV plaque reduction assay, MRC-5 cells, strain AD169; format: cell-based, Human cytomegalovirus
[2] = test system: HFF cells; assay: Cell proliferation assay, human foreskin fibroblast (HFF) cells; format: cell-based; conditions: Homo sapiens, 72 h, cell number
[3] = test system: BK virus (BKV), Gardner strain; set-up: SI50 / SI90: unit not given beside the values
[4] = test system: JC virus (JCV)
[5] = human; for CLhep / Eh / Peak area ratio, parent: 1 μM
[6] = rat; for CLhep / Eh: 1 μM; for Peak area ratio, parent: 1 µM
[7] = in vivo; conditions: male, Sprague-Dawley, rat; for AUC(0-inf): AUCInf; for AUC(0-t): AUClast; for clearance: CL; for MRT inf: MRTInf
[8] = in vitro; conditions: human
[9] = in vitro; conditions: African green monkey
[10] = in vitro; conditions: human; remark: listed apart in the source
[11] = in vitro; conditions: rat
[12] = in vitro; conditions: both, human, plasma
[13] = in vitro; conditions: male, SD, rat, plasma
[14] = in vitro; conditions: human; remark: listed apart in the source
[15] = test system: BK virus (BKV), Gardner strain; assay: microbe, parasite or virus in culture; conditions: Betapolyomavirus hominis, HFF
[16] = test system: JC virus (JCV); assay: microbe, parasite or virus in culture; conditions: JC polyomavirus, COS-7
[17] = Secondary JCV assay (qPCR), COS7 cells; conditions: African green monkey
[18] = test system: JC virus (JCV); assay: Secondary JCV assay (qPCR), COS7 cells
[19] = MRC-5 cytotoxicity assay (MTS) and visual cytotoxicity; conditions: human
[20] = Rat plasma pharmacokinetics after IV infusion and PO dose; conditions: rats; 10 mg/kg IV 2-h infusion and PO
[21] = test system: Epstein-Barr virus (EBV), Akata strain; set-up: SI50 / SI90: unit not given beside the values
[22] = test system: MOLT-3 cells; conditions: human, 7 d
[23] = test system: Epstein-Barr virus (EBV), Akata strain; assay: microbe, parasite or virus in culture; conditions: human gammaherpesvirus 4, Akata, 72 h
[24] = test system: MERS-CoV (EMC); format: cell-based; conditions: SI = CC50/EC50
[25] = test system: SARS-CoV-2 (USA-WA1/2020); format: cell-based; conditions: compound replenished daily, SI = CC50/EC50
[26] = test system: SARS-CoV
[27] = test system: SARS-CoV-2
[28] = test system: SARS-CoV-2 (USA-WA1/2020); conditions: for SI50 (SI): SARS-CoV-2, SI = CC50/EC50
[29] = test system: influenza/California/07/2009 (H1N1)pdm09
[30] = test system: Influenza B/Florida/4/2006 (Yamagata)
[31] = test system: enterovirus-68 (EV-68, US/DY/14-18953)
[32] = test system: respiratory syncytial virus (RSV, A2)
[33] = test system: Tacaribe virus (TCRV, TRVL-11573); set-up: SI50 (SI): unit not given beside the values
[34] = test system: dengue virus-2 (DENV-2, New Guinea C); conditions: SI = CC50/EC50

CCCCCCCCCCCCCCCCOCCCOP(=O)(O)OCC1=C[C@H](O)[C@H](n2cnc3c(=O)[nH]c(N)nc32)O1 [AB23040]
EC50 ([1]; Human betaherpesvirus 5, 144 h, hCMV AD169, MRC5 cells, plaque assay, 6-days duration): 22.1 µM
antiviral activity against hCMV (in words) ([1]; MRC5 cells, AD169 strain): impressive antiviral activity
Selectivity Index (CC50/EC50) ([1]; hCMV AD169, MRC5 cells): >4.52
IC50 [2]: 65.9 µM
Activity [3]: LO (key: NA (Not Active) SI50 = 0-3.9; LO (Slightly Active) SI50 = 4-9.9; MOD (Moderately Active) SI50 = 10-19.9; HI (Highly Active) SI50 = ≥20)
activity against BK virus (in words) [3]: Low activity
Activity [4]: LO (key: NA (Not Active) SI50 = 0-3.9; LO (Slightly Active) SI50 = 4-9.9; MOD (Moderately Active) SI50 = 10-19.9; HI (Highly Active) SI50 = ≥20)
activity against JC virus (in words) [4]: Low activity
CLhep [5]: 10.6 mL/min/kg
Eh [5]: 24%
Peak area ratio, parent ([5]; 15 min): 1.33E−01
Peak area ratio, parent ([5]; 60 min): 1.05E−01
hydrolytic stability in hepatic S9 (in words) ([5]; s9): least stable
T1/2 ([5]; s9, 1 μM): 3.32 h
CLhep [6]: 18.7 mL/min/kg
Eh [6]: 21%
Peak area ratio, parent ([6]; 15 min): 1.16E−01
Peak area ratio, parent ([6]; 60 min): 1.11E−01
hydrolytic stability in hepatic S9 (in words) ([6]; s9): least stable
T1/2 ([6]; s9, 1 μM): 3.95 h
concentration at 0.5 h ([7]; iv, 10 mg/kg): 2670 nM
concentration at 1 h ([7]; iv, 10 mg/kg): 3260 nM
concentration at 2 h ([7]; iv, 10 mg/kg): 4070 nM
concentration at 4 h ([7]; iv, 10 mg/kg): 133 nM
concentration at 8 h ([7]; iv, 10 mg/kg): 13 nM
concentration at 24 h ([7]; iv, 10 mg/kg): 5 nM
concentration at 72 h ([7]; iv, 10 mg/kg): 4 nM
AUC(0-inf) ([7]; iv, 10 mg/kg): 9.13 µM·h
AUC(0-t) ([7]; iv, 10 mg/kg): 9.12 µM·h
clearance ([7]; iv, 10 mg/kg): 28.3 mL/min/kg
Cmax ([7]; iv, 10 mg/kg): 3650 nM
half-life ([7]; iv, 10 mg/kg, Terminal t1/2): 37 h
half-life ([7]; iv, 10 mg/kg, t1/2): 0.8 h
Tmax ([7]; iv, 10 mg/kg): 2 h
half-life ([7]; iv, t1/2 in plasma): < 1 h
bioavailability ([7]; po, 10 mg/kg): 4%
concentration at 0.5 h ([7]; po, 10 mg/kg): 38 nM
concentration at 1 h ([7]; po, 10 mg/kg): 58 nM
concentration at 2 h ([7]; po, 10 mg/kg): 77 nM
concentration at 4 h ([7]; po, 10 mg/kg): 30.4 nM
concentration at 8 h ([7]; po, 10 mg/kg): 24 nM
AUC(0-inf) ([7]; po, 10 mg/kg): 0.503 µM·h
AUC(0-t) ([7]; po, 10 mg/kg): 0.387 µM·h
MRT inf ([7]; po, 10 mg/kg): 5.2 h
Tmax ([7]; po, 10 mg/kg): 2 h
CC50 [8]: 25.1 µM
CC50 [9]: 80.7 µM
microsomal CLint at 1 μM ([10]; s9): 7 µL/min/mg
half-life at 1 µM ([10]; s9, T1/2): 4.69 h
half-life at 1 μM ([10]; s9, T1/2): 3.31 h
microsomal CLint at 1 μM ([11]; s9): 5.8 µL/min/mg
half-life at 1 µM ([11]; s9, T1/2): 5.72 h
half-life at 1 μM ([11]; s9, T1/2): 3.95 h
half-life at 0.75 µM [12]: > 9.32 h
half-life at 0.75 μM [12]: > 9.3 h
half-life at 0.75 µM [13]: > 9.32 h
half-life at 0.75 μM [13]: > 9.3 h
CC50 at 7 d [14]: 112 µM
EC50 [15]: 4.97 µM
EC90 [15]: > 6 µM
EC50 [16]: 8.85 µM
EC90 [16]: 28 µM
CC50 at 7 days [17]: 31.3 µM
EC50 ([18]; JC polyomavirus, COS-7, 168 h): 0.37 µM
EC90 ([18]; JC polyomavirus, COS-7, 168 h): 18.6 µM
Activity ([18]; secondary JCV assay, COS7 cells, class by SI50): HI (HI (Highly Active) SI50 = ≥20)
antiviral activity against JCV (in words) ([18]; secondary testing, COS7 cells): high
CC50 at 6 days [19]: > 100 µM
tolerability / adverse events (AE) [20]: well-tolerated

CCCCCCCCCCCCCCCCOCCCOP(=O)(O)CO[C@H](CO)Cn1ccc(N)nc1=O [BCV, Brincidofovir]
activity against BK virus (in words) [3]: high or moderate activity
activity against JC virus (in words) [4]: high or moderate activity
CLhep [5]: 9.5 mL/min/kg
Eh [5]: 31%
CLhep [6]: 11.5 mL/min/kg
Eh [6]: 16%
concentration at 0.5 h ([7]; iv, 10 mg/kg): 3400 nM
concentration at 1 h ([7]; iv, 10 mg/kg): 3200 nM
concentration at 2 h ([7]; iv, 10 mg/kg): 3660 nM
concentration at 4 h ([7]; iv, 10 mg/kg): 45 nM
concentration at 8 h ([7]; iv, 10 mg/kg): 9 nM
concentration at 24 h ([7]; iv, 10 mg/kg): 6 nM
AUC(0-inf) ([7]; iv, 10 mg/kg): 9.01 µM·h
AUC(0-t) ([7]; iv, 10 mg/kg): 8.98 µM·h
clearance ([7]; iv, 10 mg/kg): 33.3 mL/min/kg
Cmax ([7]; iv, 10 mg/kg): 3760 nM
MRT inf ([7]; iv, 10 mg/kg): 1.9 h
Vd ([7]; iv, 10 mg/kg, Vss): 3.7 L/kg
half-life ([7]; iv, 10 mg/kg, t1/2): 0.8 h
half-life ([7]; iv, t1/2 in plasma): < 1 h
bioavailability ([7]; po, 10 mg/kg): 11%
concentration at 0.5 h ([7]; po, 10 mg/kg): 21 nM
concentration at 1 h ([7]; po, 10 mg/kg): 25 nM
concentration at 2 h ([7]; po, 10 mg/kg): 42 nM
concentration at 4 h ([7]; po, 10 mg/kg): 39 nM
concentration at 8 h ([7]; po, 10 mg/kg): 11 nM
AUC(0-inf) ([7]; po, 10 mg/kg): 1.2 µM·h
AUC(0-t) ([7]; po, 10 mg/kg): 1.17 µM·h
Cmax ([7]; po, 10 mg/kg): 141 nM
MRT inf ([7]; po, 10 mg/kg): 6.9 h
half-life ([7]; po, 10 mg/kg, t1/2): 4.2 h
Tmax ([7]; po, 10 mg/kg): 4 h
CC50 [8]: > 10 µM
CC50 [9]: 9.25 µM
half-life at 1 μM ([10]; s9, T1/2): 4.1 h
half-life at 1 μM ([11]; s9, T1/2): 7.68 h
half-life at 0.75 μM [12]: > 9.3 h
half-life at 0.75 μM [13]: > 9.3 h
EC50 [15]: 0.06 µM
EC90 [15]: 0.39 µM
EC50 [16]: 0.74 µM
EC90 [16]: 1.85 µM
tolerability / adverse events (AE) [20]: well-tolerated

Nc1ccn(C[C@@H](CO)OCP(=O)(O)O)c(=O)n1 [CDV, Cidofovir, reference compound]
SI50 [21]: >11
SI90 [21]: >3
SI50 [3]: >35
CC50 [22]: 97 µM
CC50 [9]: > 150 µM
CC50 at 7 d [14]: 101 µM
EC50 [23]: 9.23 µM
EC90 [23]: 29.9 µM
EC50 [15]: 4.62 µM
EC90 [15]: 106 µM
EC50 ([15]; 168 h): 4.3 µM
EC90 ([15]; 168 h): 24.1 µM
EC50 [16]: 5.66 µM
EC90 [16]: 107 µM

CC(C)CC(NC(=O)OCc1ccccc1)C(=O)NC(CCC(=O)N(C)C)C(=O)CF (stereo not drawn) [M128533, Z-Leu-Gln(NMe2)-FMK, reference compound] (Cbz-Leu-Glu(NMe2)-CH2F; configuration not given here)
SI50 (SI) [24]: >13
SI50 [25]: >260
SI ([26]; SARS-CoV, SI = CC50/EC50): >1300
EQ50 ([26]; SARS-CoV, Vero 76 cells, positive control): 0.075 µg/mL
CC50 ([26]; Vero 76 cells without virus, positive control): >100 µg/mL
CC50 [27]: >100 µg/mL
EQ50 [27]: 0.33 µg/mL
SI ([27]; SARS-CoV-2, SI = CC50/EC50): >300
CC50 [28]: > 100 µg/mL
SI50 (SI) [28]: >1100

CC(C)(C)C(=O)SCCOP(=O)(OCCSC(=O)C(C)(C)C)OCC1=CC(O)C(n2ccc(=O)[nH]c2=O)O1 (stereo not shown) [SATE-ddhU]
SI50 (SI) [24]: 0
SI50 [25]: >6.7
Activity [21]: NA (key: NA (Not Active) SI50 = 0-3.9; MOD (Moderately Active) SI50 = 4-9.9; HI (Highly Active) SI50 = ≥10)
CC50 [21]: 109 µM
EC50 [21]: > 30 µM
EC90 [21]: > 30 µM
SI50 [21]: <4
SI90 [21]: <4
Activity [3]: LO (key: NA (Not Active) SI50 = 0-3.9; LO (Slightly Active) SI50 = 4-9.9; MOD (Moderately Active) SI50 = 10-19.9; HI (Highly Active) SI50 = ≥20)
CC50 [3]: > 150 µM
EC50 [3]: 21.3 µM
EC90 [3]: > 150 µM
SI50 [3]: >7
SI90 [3]: 1
CC50 [28]: 76 µM
SI50 (SI) [28]: 3.5
CC50 [29]: 560 µM
SI50 (SI) ([29]; Influenza(H1N1), SI = CC50/EC50): 0
CC50 [30]: 560 µM
SI50 (SI) ([30]; Influenza B, SI = CC50/EC50): 0
CC50 [31]: > 100 µM
SI50 (SI) ([31]; EV-68, SI = CC50/EC50): 0
CC50 [32]: 180 µM
SI50 (SI) ([32]; RSV, SI = CC50/EC50): 0
CC50 [33]: 170 µM
SI50 (SI) [33]: 0
SI50 (SI) [34]: 0
